Measurements: patent publication US8440442B2, “Method of assaying 5-FU” (Myriad Genetics, Inc, priority 2009, dated 2013)

Biological target: T1, dihydropyrimidine dehydrogenase (DPD) (Homo sapiens, UniProt Q12882)
T1 construct: from tissue; host or cells: donor whole blood (K2EDTA), plasma separated from it, and WBC/buffy coat
T1 sequence (Q12882 4-1025): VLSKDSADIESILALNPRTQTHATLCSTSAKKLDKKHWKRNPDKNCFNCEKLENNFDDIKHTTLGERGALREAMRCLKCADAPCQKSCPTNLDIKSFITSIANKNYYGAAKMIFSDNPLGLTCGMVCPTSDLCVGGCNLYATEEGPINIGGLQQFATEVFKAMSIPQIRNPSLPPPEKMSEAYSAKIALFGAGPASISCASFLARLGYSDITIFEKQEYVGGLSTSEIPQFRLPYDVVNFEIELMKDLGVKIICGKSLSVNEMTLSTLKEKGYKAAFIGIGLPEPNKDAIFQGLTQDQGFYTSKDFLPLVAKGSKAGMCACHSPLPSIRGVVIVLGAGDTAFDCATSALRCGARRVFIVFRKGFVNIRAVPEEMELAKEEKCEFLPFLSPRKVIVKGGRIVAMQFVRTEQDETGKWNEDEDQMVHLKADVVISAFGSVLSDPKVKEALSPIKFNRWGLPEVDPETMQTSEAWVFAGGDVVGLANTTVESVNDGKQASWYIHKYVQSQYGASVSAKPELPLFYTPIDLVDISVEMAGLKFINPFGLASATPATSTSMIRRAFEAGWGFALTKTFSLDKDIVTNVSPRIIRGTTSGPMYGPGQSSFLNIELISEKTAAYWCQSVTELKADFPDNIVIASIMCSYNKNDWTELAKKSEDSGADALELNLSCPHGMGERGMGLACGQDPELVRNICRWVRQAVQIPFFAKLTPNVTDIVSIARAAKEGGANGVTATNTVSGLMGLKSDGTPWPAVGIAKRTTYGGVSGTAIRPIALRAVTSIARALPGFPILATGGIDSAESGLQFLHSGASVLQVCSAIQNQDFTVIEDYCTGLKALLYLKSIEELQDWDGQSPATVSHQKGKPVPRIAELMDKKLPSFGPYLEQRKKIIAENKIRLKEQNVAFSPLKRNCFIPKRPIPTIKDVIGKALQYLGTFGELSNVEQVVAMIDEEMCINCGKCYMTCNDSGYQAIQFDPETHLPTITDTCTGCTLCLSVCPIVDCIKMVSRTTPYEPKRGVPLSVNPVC
Assay: Extended incubation of gimeracil in blood before plasma separation
Type: biochemical
Details: gimeracil 1200 ng/mL; for 5-FU Concentration 24 hrs after plasma separation / 5-FU Concentration Upon plasma separation: 500 ng/mL 5-FU
Protocol: In the following illustrative examples, 5-FU was measured using an antibody-based agglutination assay on the Olympus AU680 Analyzer using an antibody disclosed in U.S. Pat. No. 7,205,116. Specifically, the concentration of 5-FU in a sample is determined based on the absorbance of a sample, which is determined by the amount of aggregation by the nanoparticles. The system requires two reagents, which when mixed in the absence of free 5-FU will form large aggregates of nanoparticles and scatter light to result in a higher absorption value. In the presence of free 5-FU, the agglutination reaction becomes somewhat inhibited and scattering of light is less, causing a lower absorption value. The instrument is calibrated twice monthly, and a curve is generated (Absorbance vs. 5-FU concentration). Absorbance values from individual samples are compared against this curve to determine concentration.
Generally in the agglutination assay, 95 μl of a buffer containing 5-FU-labeled amino-dextran is pipetted to a cuvette, followed by 7 μL of a filtered plasma sample. The sample and reagent are mixed and then incubated for about 3.5 minutes. 95 μl of 5-FU antibody-conjugated nanoparticles is pipetted into the cuvette and mixed. The complete reaction incubates for about 6.2 minutes. A series of 27 measurements at 600 nm are taken at regular intervals by the AU680 analyzer throughout this process, and 5-FU concentration is calculated using the measurements from two specific time points.
Six tubes of blood (spray-on K2EDTA tubes, 6 mL) was drawn from each of six donors, and the blood tubes were inverted several times to mix the anti-coagulant into the blood. Blood tubes were pooled and kept separate by donor. An aliquot of each donor's blood was transferred to a new tube, and a calculated volume of 5-FU stock (at 200 ng/μL) was added to each blood sample to achieve a final concentration of 500 ng/mL 5-FU. Spiked blood samples were aliquotted to clean tubes, 4 mL of blood to each of 8 tubes per donor. Gimeracil in methanol solvent was added to the blood tubes to reach a final concentration of 1200 ng/mL. For negative control, methanol only is added to the control blood tube. Blood tubes sat at room temperature for 45 minutes, 24 hours, or 48 hours before plasma separation. At the appropriate times, the blood tubes were centrifuged at 2000×g for 10 minutes at room temperature for plasma separation. The plasma was aspirated immediately after centrifugation and dispensed into clean cryovials. For 5-FU assays, the plasma samples were run under standard conditions for the Olympus AU680 analyzer, as described above (200 μL, spin for 15 minutes at 12,500 rpm). Measurements of 5-FU concentration were taken after plasma collection and for 2 days following the initial reading. Plasma was stored at room temperature during the interval.

Oc1cc(O)c(Cl)cn1 [Gimeracil, 5-chloro-2,4-dihydroxypyridine]
5-FU Concentration 24 hrs after plasma separation (45 minute incubation in blood): 538.1 ng/mL | 5-FU Concentration Upon plasma separation (45 minute incubation in blood): 533.3 ng/mL | 5-FU Concentration 24 hrs after plasma separation (24 hours incubation in blood): 551.9 ng/mL | 5-FU Concentration Upon plasma separation (24 hours incubation in blood): 551.8 ng/mL | 5-FU Concentration 24 hrs after plasma separation (48 hours incubation in blood): 578.4 ng/mL | 5-FU Concentration Upon plasma separation (48 hours incubation in blood): 581.3 ng/mL | effect of keeping gimeracil in blood without plasma separation for a longer time (24 or 48 hours in blood (FIG. 5)): may cause 5-FU concentration to artificially increase
